From paper PMC8032668, “Evaluation of carboxyfluorescein-labeled 7-methylguanine nucleotides as probes for studying cap-binding proteins by fluorescence anisotropy” (Scientific Reports, 2021)

Key:
[1] = target: T1, eIF4E (Mus musculus, UniProt P63073); assay: FA competition (probe-displacement) assay for eIF4E; type: binding, Murine; settings: for EC50: HEPES pH 7.2
T1 construct: Murine eIF4E (residues 28–217) was expressed in E. coli; made in house; host or cells: E. coli
Protocol: Inclusion bodies containing eIF4E were solubilized in 50 mM HEPES/KOH (pH 7.2) buffer containing 10% glycerol, 6 M guanidine hydrochloride and 2 mM DTT. Protein was then refolded during a two-step dialysis against buffer with decreasing concentration of guanidine hydrochloride in the presence of 100 mM KCl. Subsequently eIF4E was loaded on ion exchange HiTrap SP HP column (GE Healthcare), eluted with linear gradient of 0.1–1 M KCl and finally desalted and polished during a gel filtration purification step on HiLoad 16/600 Superdex 75 pg (GE Healthcare) using 50 mM HEPES pH 7.2, 100 mM KCl, 0.5 mM EDTA, 2 mM DTT buffer. eIF4E was aliquoted and stored in the presence of 10% glycerol at −80 °C. Before each experiment the protein was centrifuged on Ultrafree-MC Centrifugal PVDF filter with […] pore size (Millipore), at 4 °C and 3000×g for 2 min to remove any possible aggregates.
(§1) Experiments were carried out at 25 °C in 96-well non-binding microplates with sample volume of 200 µl per well. Two different buffers were used depending on protein used in the assay:
eIF4E assay buffer—50 mM HEPES (pH 7.2), 100 mM KCl, 0.5 mM EDTA, 1 mM DTT.
(§2) For competitive binding assay, a mixture containing the probe and the protein was incubated with the tested ligand.
(§3) In competitive measurements, a constant concentration of the protein and fluorescent probe and increasing concentration of the test ligand were used. At least 12 point dilutions of the tested compound were used. The experiments were carried out in 96-well plates. Each sample contained a mixture consisting of the probe, tested ligand and buffer (same as for the direct binding assay). The samples were incubated for 10 min at 25 °C with simultaneous shaking, then the protein was added to each well, incubated for additional 3 min, followed by the measurement of fluorescence anisotropy. FA signals were recorded for 20 min with 2 min intervals.

[2] = test system: DcpS; parameters: method as in PMID 27031609; settings: DcpS inhibition, FR assay; cited from earlier work
[3] = target: T2, DcpS (Homo sapiens, UniProt Q96C86); assay: FA competition assay for DcpS; type: binding
T2 construct: His tag; made in house; host or cells: E. coli BL21(DE3) RIL
T2 sequence (Q96C86 1-337): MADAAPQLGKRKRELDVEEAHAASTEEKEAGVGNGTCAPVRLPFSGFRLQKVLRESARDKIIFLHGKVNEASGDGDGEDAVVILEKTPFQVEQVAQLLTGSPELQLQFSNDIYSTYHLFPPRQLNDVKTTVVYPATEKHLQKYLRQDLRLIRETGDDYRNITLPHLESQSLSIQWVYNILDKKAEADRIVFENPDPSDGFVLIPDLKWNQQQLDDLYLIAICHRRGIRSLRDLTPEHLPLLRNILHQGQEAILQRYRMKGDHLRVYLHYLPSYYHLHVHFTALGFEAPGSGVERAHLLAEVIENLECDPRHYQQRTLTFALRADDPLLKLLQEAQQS
Protocol: Expression of recombinant His-tagged human DcpS was performed in BL21(DE3) RIL strain and induced overnight at 18 °C using 0.5 mM IPTG as described previously. Cells were harvested, resuspended in buffer (50 mM Tris pH 7.6, 500 mM NaCl, 20 mM imidazole) with lysozyme (0.1 mg/ml) and protease inhibitors (1 mM PMSF, 1 µM pepstatin A, 0.3 µM aprotinin) and then lysed using sonication. Lysate was clarified by centrifugation at 35 000 × g for 40 min at 4 °C. […] The enzyme hDcpS was purified to homogeneity on HiLoad 16/600 Superdex 200 pg (GE Healthcare) gel filtration column using 50 mM Tris·HCl pH 7.6, 200 mM NaCl, 2 mM DTT buffer. Protein was aliquoted and stored in the presence of 10% glycerol at -80 °C.
as §1
DcpS assay buffer—50 mM Tris–HCl (pH 7.6), 200 mM KCl, 0.5 mM EDTA, 1 mM DTT.
as §2, §3

[4] = target: T2, DcpS; assay: FA screening of in-house library, 2i:DcpS system; type: binding; settings: 1 nM 2i, 25 nM DcpS, 1.5 µM inhibitor
Protocol: The Z’ factor was determined under conditions optimized for the competition assay. The Z’ value exceeded 0.8 for incubation times up to 1 h, making the assay suitable for screening experiments (Table 5). A screening experiment was then performed using the same compound library as that used for eIF4E screening. The results highlighted the impact of the triphosphate bridge modification on the affinity for the protein. […] The FA method also enabled the identification of unstable compounds, e.g., hydrozylable ligands for which determination of affinity is problematic (as observed by FA signal changes during the experiment; Fig. 7).
To evaluate the quality of the assay, the Z’ factor was determined for several protein-probe combinations. The assay was performed on 96-well microplates, where half of the samples were negative controls and the other half were positive controls.
For the screening experiments a small in-house library containing 21 ligands was used. Experiments were conducted in the same manner as Z’ factor determination, with exception that the ligand concentration was modified (eIF4E screening conditions: 1 nM 1e, 100 nM eIF4E, 750 nM ligand, DcpS screening conditions: 1 nM 2i, 25 nM DcpS, 1.5 µM ligand). For eIF4E screening experiment, the 1e:eIF4E system was used, for DcpS screening 2i:DcpS system was used.

[5] = target: 4G peptide (UniProt Q04637); assay: fluorescence anisotropy; settings: cited from earlier work
[6] = Probe 1a: 10 nM probe 1a and 100 nM eIF4E
[7] = Probe 1b: 1 nM probe 1b and 15 nM eIF4E
[8] = Probe 1e: footnote c, 1 nM probe 1c and 100 nM eIF4E
[9] = 1f:DcpS system, 1f and 100 nM DcpS
[10] = 2g:DcpS system, 2 nM 2g and 25 nM DcpS
[11] = 2i:DcpS system, 1 nM 2i and 25 nM DcpS
[12] = 2h:DcpS system, 2 nM 2h and 25 nM DcpS

T1 sequence (P63073 28-217): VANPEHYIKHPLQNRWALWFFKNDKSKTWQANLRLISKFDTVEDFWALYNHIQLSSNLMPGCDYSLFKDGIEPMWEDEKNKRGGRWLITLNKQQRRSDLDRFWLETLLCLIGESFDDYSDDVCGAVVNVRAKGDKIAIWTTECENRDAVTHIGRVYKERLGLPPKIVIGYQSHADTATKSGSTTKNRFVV
Sequence of eIF4E (from UniProt P06730) (P06730 2-217): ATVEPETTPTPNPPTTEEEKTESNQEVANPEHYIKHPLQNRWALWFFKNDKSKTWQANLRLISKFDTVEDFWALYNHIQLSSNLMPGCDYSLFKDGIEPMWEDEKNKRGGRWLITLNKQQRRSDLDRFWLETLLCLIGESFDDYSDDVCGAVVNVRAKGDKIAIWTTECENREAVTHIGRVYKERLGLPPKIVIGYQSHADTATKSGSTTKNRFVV

## C[n+]1cn([C@@H]2O[C@H](COP(=O)([O-])OP(O)(=S)OP(=O)(O)OC[C@H]3O[C@@H](n4cnc5c(=O)[nH]c(N)nc54)[C@H](O)[C@@H]3O)[C@@H](O)[C@H]2O)c2nc(N)[nH]c(=O)c21 (single isomer, unassigned) [m^7GppSpG D1]
[1]; [6]
  Hill slope: 1.37 ± 0.02
  EC50: 184 ± 13 nM
[1]; [7]
  Hill slope: 1.16 ± 0.18
  EC50: 210 ± 32 nM
[1]; [8]
  Hill slope: 1.10 ± 0.06
  EC50: 226 ± 43 nM

## C[n+]1cn([C@@H]2O[C@H](COP(=O)([O-])OP(O)(=S)OP(=O)(O)OC[C@H]3O[C@@H](n4cnc5c(=O)[nH]c(N)nc54)[C@H](O)[C@@H]3O)[C@@H](O)[C@H]2O)c2nc(N)[nH]c(=O)c21 (single isomer, unassigned) [m^7GppSpG D2]
[1]; [6]
  Hill slope: 1.19 ± 0.06
  EC50: 382 ± 21 nM
[1]; [7]
  Hill slope: 1.15 ± 0.06
  EC50: 511 ± 109 nM
[1]; [8]
  Hill slope: 1.04 ± 0.17
  EC50: 477 ± 89 nM

## CO[C@@H]1[C@H](O)[C@@H](COP([O-])(=S)OP(=O)(O)OP(=O)(O)OP(=O)(O)OC[C@H]2O[C@@H](n3cnc4c(=O)[nH]c(N)nc43)[C@H](O)[C@@H]2O)O[C@H]1n1c[n+](C)c2c(=O)[nH]c(N)nc21 (single isomer, unassigned) [m^7′-OGpSpppG D1, m^7,2′-OGpSpppG D1]
[1]; [6]
  Hill slope: 2.07 ± 0.02
  EC50: 68 ± 3 nM
[1]; [7]
  Hill slope: 1.64 ± 0.10
  EC50: 22.2 ± 3.7 nM
[1]; [8]
  Hill slope: 1.46 ± 0.60
  EC50: 51.4 ± 6.1 nM

## CO[C@@H]1[C@H](O)[C@@H](COP([O-])(=S)OP(=O)(O)OP(=O)(O)OP(=O)(O)OC[C@H]2O[C@@H](n3cnc4c(=O)[nH]c(N)nc43)[C@H](O)[C@@H]2O)O[C@H]1n1c[n+](C)c2c(=O)[nH]c(N)nc21 (single isomer, unassigned) [m^7′-OGpSpppG D2, m^7,2′-OGpSpppG D2]
[1]; [6]
  Hill slope: 1.94 ± 0.26
  EC50: 74 ± 10 nM
[1]; [7]
  Hill slope: 1.37 ± 0.08
  EC50: 34.9 ± 7 nM
[1]; [8]
  Hill slope: 1.40 ± 0.06
  EC50: 64.3 ± 3.4 nM

## Cn1c[n+]([C@@H]2O[C@H](COP(=O)(O)OP(=O)([O-])O)[C@@H](O)[C@H]2O)c2nc(N)[nH]c(=O)c21 [m^7GDP]
[1]; [6]
  Hill slope: 1.36 ± 0.03
  EC50: 204 ± 5.5 nM
[1]; [7]
  Hill slope: 1.16 ± 0.04
  EC50: 212 ± 30 nM
[1]; [8]
  Hill slope: 1.08 ± 0.07
  EC50: 216 ± 11 nM
[3]; [9]
  EC50: 36.5 ± 3.6 nM
  Hill slope: 1.98 ± 0.18
[3]; [10]
  EC50: 16.4 ± 0.2 nM
  Hill slope: 1.55 ± 0.09
[3]; [11]
  EC50: 36.2 ± 4.7 nM
  Hill slope: 1.42 ± 0.06
[3]; [12]
  EC50: 31.2 ± 10.7 nM
  Hill slope: 1.06 ± 0.37
[2]
  IC50: 5200 ± 1200 nM

## Cn1c[n+]([C@@H]2O[C@H](COP(=O)(O)O)[C@@H](O)[C@H]2O)c2nc(N)[nH]c(=O)c21 [m^7GMP]
[3]; [9]
  EC50: 104 ± 11 nM
  Hill slope: 1.19 ± 0.15
[3]; [10]
  EC50: 112 ± 11 nM
  Hill slope: 1.04 ± 0.02
[3]; [11]
  EC50: 255 ± 14 nM
  Hill slope: 1.00 ± 0.02
[3]; [12]
  EC50: 357 ± 44 nM
  Hill slope: 0.93 ± 0.07
[2]
  IC50: 97000 ± 21000 nM

## C[n+]1cn([C@@H]2O[C@H](COP(=O)(O)CP(=O)(O)OP(=O)(O)OC[C@H]3O[C@@H](n4cnc5c(=O)[nH]c(N)nc54)[C@H](O)[C@@H]3O)[C@@H](O)[C@H]2O)c2nc(N)[nH]c(=O)c21 [m^7GpCH2ppG]
[4]
  inhibitory potency in DcpS screening: strong DcpS inhibitors

## C[n+]1cn([C@@H]2O[C@H](COP(=O)(O)CP(=O)(O)OP(=O)([O-])OP(=O)(O)OC[C@H]3O[C@@H](n4cnc5c(=O)[nH]c(N)nc54)[C@H](O)[C@@H]3O)[C@@H](O)[C@H]2O)c2nc(N)nc(O)c21 [m^7GpCH2pppG]
[4]
  inhibitory potency in DcpS screening: strong DcpS inhibitors

## C[n+]1cn([C@@H]2O[C@H](COP(=O)([O-])NP(=O)(O)OP(=O)(O)OC[C@H]3O[C@@H](n4cnc5c(=O)[nH]c(N)nc54)[C@H](O)[C@@H]3O)[C@@H](O)[C@H]2O)c2nc(N)[nH]c(=O)c21.N.N [m^7GpNHppG]
[3]; [9]
  EC50: 27.8 ± 2.7 nM
  Hill slope: 2.26 ± 0.16
[3]; [10]
  EC50: 11.6 ± 0.4 nM
  Hill slope: 1.95 ± 0.07
[3]; [11]
  EC50: 17.9 ± 1.3 nM
  Hill slope: 1.66 ± 0.10
[3]; [12]
  EC50: 18.1 ± 5 nM
  Hill slope: 1.23 ± 0.44
[4]
  inhibitory potency in DcpS screening: strong DcpS inhibitors
[2]
  IC50: 3200 ± 900 nM

## C[n+]1cn([C@@H]2O[C@H](COP(=O)([S-])OP(=O)(O)OP(=O)(O)OC[C@H]3O[C@@H](n4cnc5c(=O)[nH]c(N)nc54)[C@H](O)[C@@H]3O)[C@@H](O)[C@H]2O)c2nc(N)nc(O)c21 (stereo partly drawn) [m^7GpSppG D1]
[4]
  stability towards DcpS (FA signal changes during the screening experiment): slowly hydrolyzed DcpS substrates

## [BH3-]P(=O)(OP(=O)(O)OCC1OC(n2cnc3c(=O)[nH]c(N)nc32)C(O)C1O)OP(=O)(O)OCC1OC(n2c[n+](C)c3c(=O)[nH]c(N)nc32)C(O)C1O (stereo not drawn) [m^7GppBH3pG D1]
[4]
  stability towards DcpS (FA signal changes during the screening experiment): slowly hydrolyzed DcpS substrates

## [BH3-]P(=O)(OP(=O)(O)OCC1OC(n2cnc3c(=O)[nH]c(N)nc32)C(O)C1O)OP(=O)(O)OCC1OC(n2c[n+](C)c3c(=O)[nH]c(N)nc32)C(O)C1O (stereo not drawn) [m^7GppBH3pG D2]
[4]
  stability towards DcpS (FA signal changes during the screening experiment): slowly hydrolyzed DcpS substrates

## Cn1c[n+]([C@@H]2O[C@H](COP(=O)(O)OP(=O)([O-])OP(=O)(O)OC[C@H]3O[C@@H](n4cnc5c(=O)[nH]c(N)nc54)[C@H](O)[C@@H]3O)[C@@H](O)[C@H]2O)c2nc(N)[nH]c(=O)c21 [m^7GpppG]
[1]; [6]
  Hill slope: 1.12 ± 0.03
  EC50: 413 ± 13 nM
[1]; [7]
  Hill slope: 1.12 ± 0.06
  EC50: 599 ± 64 nM
[1]; [8]
  Hill slope: 1.08 ± 0.11
  EC50: 551 ± 75 nM

## eIF4E (from UniProt P06730)
[5]
  Kd: 25000 nM

## m^7GSppSpG D1
[4]
  inhibitory potency in DcpS screening: the most potent inhibitors

## m^7GSppSpG D2
[4]
  inhibitory potency in DcpS screening: the most potent inhibitors

## m^7GSppSpSG D1
[4]
  inhibitory potency in DcpS screening: the most potent inhibitors

## m^7GSppSpSG D2
[4]
  inhibitory potency in DcpS screening: the most potent inhibitors
